Laboratory results: ChEMBL document CHEMBL4052604, “Englerins: A Comprehensive Review” (J Nat Prod, 2017)

Tests used:
A498 [1] = assay: Cytotoxicity against human A498 cells assessed as reduction in cell viability; format: functional, cell-based
A498 [2] = assay: Antiproliferative activity against human A498 cells after 48 hrs by sulphorhodamine B assay; format: functional, cell-based; settings: A498, 48 h

SMILES	IC50 (A498 [1]) [nM]	IC50 (A498 [2]) [nM]
CC[C@@]12C[C@@H](OC(=O)CO)[C@@](C)(O1)[C@@H]1CC[C@@H](C)[C@H]1[C@@H]2OC(=O)/C=C/c1ccccc1	950	–
CC1(C)C2C[C@H](OC(=O)/C=C/c3ccccc3)C1(C)C[C@H]2OC(=O)CO (stereo not given in full)	35000	–
CC(C)[C@@]12C[C@@H](C(=O)OCCO)[C@@](C)(O1)[C@@H]1CC[C@@H](C)[C@H]1[C@@H]2OC(=O)/C=C/c1ccccc1	–	48
C[C@@H]1CC[C@@H]2[C@@H]1[C@H](OC(=O)/C=C/c1ccccc1)[C@]1(C)C[C@@H](OC(=O)CO)[C@@]2(C)O1	4600	–
CC(C)[C@@]12C[C@@H](OC(=O)CO)[C@@](C)(O1)[C@@H]1CC[C@@H](C)[C@H]1[C@@H]2OC(=O)c1ccc(Cl)cc1Cl	280	–
